Assay results published in patent publication US20050084916A1, “Identification of the IkappaBNS protein and its products” (priority 2001, published 2005).

Tests used:
[1] = system: IκBNS mRNA; assay type: cell-based, mouse
[2] = system: thymocytes in N15tg RAG-2−/− H-2b FTOC; details: cited from earlier work
[3] = system: NF-κB; assay: NF-κB luciferase reporter assay in transfected Cos-7 cells; assay type: cell-based
[4] = system: NF-κB; assay: NF-κB-sensitive reporter constructs in transiently transfected Jurkat T cells; assay type: cell-based

In the case of `CC(C)C[C@H](N)C(=O)O` [L4], the “IκBNS mRNA induction” value [1] is listed as “do not upregulate” and the thymic selection outcome [2] is listed as “positive selection”.

For `CCCCCCCCCCCCCC(=O)O[C@@H]1[C@@H](C)[C@@]2(O)[C@@H](C=C(CO)C[C@]3(O)C(=O)C(C)=C[C@@H]23)[C@@H]2C(C)(C)[C@]12OC(C)=O` [PMA, phorbol-12-myristate-13-acetate], the “increase in NF-κB luciferase activity relative to untreated cells” value ([3]; 50 ng/ml for 7 h) was 5-10 fold.

B1: IκBNS: novel 327 amino acid IκB family protein with 7 ankyrin domains (SEQ ID NO: 4); expressed from Flag-tagged pcDNA3.1 construct (protein)
chain: MEDSLDTRLYPEPSLSQVGSWRVSSLPSGSPQLPSPTGPSLETARAHILALGPQQLLAQMEDDTYSLQGWRVSPSGPQPGPSLEARAHLALGPQQLLAQDEEGDTLLHLFAARGLRWAAYAAAEVLQMYRQLDIREHKGKTPLLVAAAANQPLIVEDLLDEEGDTLLHLFAARGLRWAAYAAAEVLQYRLDIREHKGKTPLLVAAAANQPLIVEDLLSLGAEPNATDHQGRSVLHVAATYGLPGVLSAVFKSGIQVDLEARDFEGLTPLHTAVLALNLGAEPNADHQGRSVLHVAATYGLPGVLAVSGQVDLEARDFEGLTPLHTALALNAAMLPASVCPRMQNSQARDRLTCVQMLLQMGASHTSQEIKSNKTILHLAVQAANPTLVQLAMPCPRQARDRLCVMLLQMGAHTSQEIKSNKTLHLAVQAANPTLVQLLLGLPRGDLRAFVNMKAHGNTALHMAAALPPGPPQEAIVRHLLAAGADPTLRNLENEQPVLLLPRGDLRFVNMKAHGNTALHMAAALPPGPQEAIVRHLLAAGADPTLRNLEGEQPVHLLRPGGPEGLRQLLKRSRTAPPGLSSHLLRPGGPEGLRQLLKRSRAPPGLSS
modifications: Flag tag; mouse
notes: expressed from Flag-tagged pcDNA3.1 construct
In the case of B1, the “effect of cotransfection on PMA-induced NF-κB-driven luciferase activity” value ([3]; 10 μg construct, PMA 50 ng/ml 7 h) is reported as “reduced NF-κB-driven luciferase activity to a level approaching that of cells transfected with the vector only” and the “activity of NF-κB-sensitive reporter constructs” value [4] is reported as “reduced the activity”.
